Laboratory results published in ChEMBL document CHEMBL1287797, “Design and synthesis of harzialactone analogues: promising anticancer agents” (2010).

Tests used:
Assay type in all cases: functional
[1] = Anticancer activity against mouse P388D1 cells assessed as inhibition of cell growth at 10 ug/ml by MTT assay
HeLa [2] = assay: Anticancer activity against human HeLa cells assessed as inhibition of cell growth at 20 ug/ml by MTT assay
HL-60 [3] = assay: Anticancer activity against human HL60 cells assessed as inhibition of cell growth at 20 ug/ml by MTT assay
ZR-75-1 [4] = assay: Anticancer activity against human ZR-75-1 cells assessed as inhibition of cell growth at 20 ug/ml by MTT assay
COLO 205 [5] = assay: Anticancer activity against human COLO205 cells assessed as inhibition of cell growth at 20 ug/ml by MTT assay
[6] = Anticancer activity against mouse P388D1 cells assessed as inhibition of cell growth at 20 ug/ml by MTT assay
HeLa [7] = assay: Anticancer activity against human HeLa cells assessed as inhibition of cell growth at 40 ug/ml by MTT assay
HL-60 [8] = assay: Anticancer activity against human HL60 cells assessed as inhibition of cell growth at 40 ug/ml by MTT assay
ZR-75-1 [9] = assay: Anticancer activity against human ZR-75-1 cells assessed as inhibition of cell growth at 40 ug/ml by MTT assay
COLO 205 [10] = assay: Anticancer activity against human COLO205 cells assessed as inhibition of cell growth at 40 ug/ml by MTT assay
[11] = Anticancer activity against mouse P388D1 cells assessed as inhibition of cell growth at 40 ug/ml by MTT assay
HeLa [12] = assay: Anticancer activity against human HeLa cells assessed as inhibition of cell growth at 60 ug/ml by MTT assay
HL-60 [13] = assay: Anticancer activity against human HL60 cells assessed as inhibition of cell growth at 60 ug/ml by MTT assay
ZR-75-1 [14] = assay: Anticancer activity against human ZR-75-1 cells assessed as inhibition of cell growth at 60 ug/ml by MTT assay
COLO 205 [15] = assay: Anticancer activity against human COLO205 cells assessed as inhibition of cell growth at 60 ug/ml by MTT assay
[16] = Anticancer activity against mouse P388D1 cells assessed as inhibition of cell growth at 60 ug/ml by MTT assay
HeLa [17] = assay: Anticancer activity against human HeLa cells assessed as inhibition of cell growth at 80 ug/ml by MTT assay
HL-60 [18] = assay: Anticancer activity against human HL60 cells assessed as inhibition of cell growth at 80 ug/ml by MTT assay
ZR-75-1 [19] = assay: Anticancer activity against human ZR-75-1 cells assessed as inhibition of cell growth at 80 ug/ml by MTT assay
COLO 205 [20] = assay: Anticancer activity against human COLO205 cells assessed as inhibition of cell growth at 80 ug/ml by MTT assay
[21] = Anticancer activity against mouse P388D1 cells assessed as inhibition of cell growth at 80 ug/ml by MTT assay
HeLa [22] = assay: Anticancer activity against human HeLa cells assessed as inhibition of cell growth at 5 ug/ml by MTT assay
HL-60 [23] = assay: Anticancer activity against human HL60 cells assessed as inhibition of cell growth at 5 ug/ml by MTT assay
ZR-75-1 [24] = assay: Anticancer activity against human ZR-75-1 cells assessed as inhibition of cell growth at 5 ug/ml by MTT assay
COLO 205 [25] = assay: Anticancer activity against human COLO205 cells assessed as inhibition of cell growth at 5 ug/ml by MTT assay
[26] = Anticancer activity against mouse P388D1 cells assessed as inhibition of cell growth at 5 ug/ml by MTT assay
HeLa [27] = assay: Anticancer activity against human HeLa cells assessed as inhibition of cell growth at 100ug/ml by MTT assay
HL-60 [28] = assay: Anticancer activity against human HL60 cells assessed as inhibition of cell growth at 100ug/ml by MTT assay
ZR-75-1 [29] = assay: Anticancer activity against human ZR-75-1 cells assessed as inhibition of cell growth at 100ug/ml by MTT assay
COLO 205 [30] = assay: Anticancer activity against human COLO205 cells assessed as inhibition of cell growth at 100ug/ml by MTT assay
[31] = Anticancer activity against mouse P388D1 cells assessed as inhibition of cell growth at 100ug/ml by MTT assay
COLO 205 [32] = assay: Anticancer activity against human COLO205 cells assessed as inhibition of cell growth at 10 ug/ml by MTT assay
ZR-75-1 [33] = assay: Anticancer activity against human ZR-75-1 cells assessed as inhibition of cell growth at 10 ug/ml by MTT assay
HL-60 [34] = assay: Anticancer activity against human HL60 cells assessed as inhibition of cell growth at 10 ug/ml by MTT assay
HeLa [35] = assay: Anticancer activity against human HeLa cells assessed as inhibition of cell growth at 10 ug/ml by MTT assay

Structure (SMILES) | inhibition at 10 µg/mL [1] [%] | inhibition at 20 µg/mL (HeLa [2]) [%] | inhibition at 20 µg/mL (HL-60 [3]) [%] | inhibition at 20 µg/mL (ZR-75-1 [4]) [%] | inhibition at 20 µg/mL (COLO 205 [5]) [%] | inhibition at 20 µg/mL [6] [%] | inhibition at 40 µg/mL (HeLa [7]) [%] | inhibition at 40 µg/mL (HL-60 [8]) [%] | inhibition at 40 µg/mL (ZR-75-1 [9]) [%] | inhibition at 40 µg/mL (COLO 205 [10]) [%] | inhibition at 40 µg/mL [11] [%] | inhibition at 60 µg/mL (HeLa [12]) [%] | inhibition at 60 µg/mL (HL-60 [13]) [%] | inhibition at 60 µg/mL (ZR-75-1 [14]) [%] | inhibition at 60 µg/mL (COLO 205 [15]) [%] | inhibition at 5 µg/mL (HeLa [22]) [%] | inhibition at 5 µg/mL (HL-60 [23]) [%] | inhibition at 5 µg/mL (ZR-75-1 [24]) [%] | inhibition at 5 µg/mL (COLO 205 [25]) [%] | inhibition at 5 µg/mL [26] [%] | also measured
O=C1O[C@@H](CCc2ccccc2)C[C@H]1O | 31.5 | 31.3 | 36.8 | 36.1 | 22.8 | 35.2 | 34 | 38.7 | 37.4 | 25.4 | 37.6 | 39 | 40 | 37.9 | 36 | 23.4 | 28.4 | 29.5 | 9.18 | 27.8 | inhibition at 60 µg/mL [16]: 38.3%; inhibition at 80 µg/mL (HeLa [17]): 41%; inhibition at 80 µg/mL (HL-60 [18]): 43.2%; inhibition at 80 µg/mL (ZR-75-1 [19]): 43.6%; inhibition at 80 µg/mL (COLO 205 [20]): 65.3%; inhibition at 80 µg/mL [21]: 40%; inhibition at 100 µg/mL (HeLa [27]): 62.4%; inhibition at 100 µg/mL (HL-60 [28]): 49%; inhibition at 100 µg/mL (ZR-75-1 [29]): 50.7%; inhibition at 100 µg/mL (COLO 205 [30]): 69.3%; inhibition at 100 µg/mL [31]: 45.1%; inhibition at 10 µg/mL (COLO 205 [32]): 16.8%; inhibition at 10 µg/mL (ZR-75-1 [33]): 35.7%; inhibition at 10 µg/mL (HL-60 [34]): 31%; inhibition at 10 µg/mL (HeLa [35]): 31.3%
O=C1O[C@@H](CCc2ccc(Br)cc2)C[C@H]1O | 25.9 | 54.4 | 24.5 | 35.2 | 29.4 | 31.5 | 57.5 | 39.4 | 36.6 | 40.9 | 34.6 | 60.6 | 32.6 | 37 | 43.3 | 52.3 | 20.6 | 20.9 | 23.1 | 10.5 | inhibition at 60 µg/mL [16]: 40.1%; inhibition at 80 µg/mL (HeLa [17]): 62.5%; inhibition at 80 µg/mL (HL-60 [18]): 47.7%; inhibition at 80 µg/mL (ZR-75-1 [19]): 38.3%; inhibition at 80 µg/mL (COLO 205 [20]): 72.2%; inhibition at 80 µg/mL [21]: 40.7%; inhibition at 100 µg/mL (HeLa [27]): 69.1%; inhibition at 100 µg/mL (HL-60 [28]): 52.9%; inhibition at 100 µg/mL (ZR-75-1 [29]): 42.3%; inhibition at 100 µg/mL (COLO 205 [30]): 75.8%; inhibition at 100 µg/mL [31]: 52.5%; inhibition at 10 µg/mL (COLO 205 [32]): 26.2%; inhibition at 10 µg/mL (ZR-75-1 [33]): 33%; inhibition at 10 µg/mL (HL-60 [34]): 22.6%; inhibition at 10 µg/mL (HeLa [35]): 52.5%
CO[C@@]12[C@H](COC(N)=O)C3=C(C(=O)C(C)=C(N)C3=O)N1C[C@@H]1N[C@@H]12 [MITOMYCIN] |  |  |  |  |  |  |  |  |  |  |  |  |  |  |  | 56.5 | 53.2 | 51.3 | 56.3 | 55.4 | 
